Laboratory results: ChEMBL document CHEMBL1136598, “Design, synthesis, and structure-activity relationships of unsubstituted piperazinone-based transition state factor Xa inhibitors” (Bioorg Med Chem Lett, 2003)
One block for each compound: values may come before it.

Columns and labels:
Coagulation factor X [1] = target: T1, Coagulation factor X (Homo sapiens, UniProt P00742); test: In vitro inhibitory activity against factor Xa
Prothrombin = Prothrombin (Homo sapiens, UniProt P00734); test: In vitro inhibitory activity against serine protease thrombin
[2] = In vivo half life period after intravenous administration in rat; type: ADME, organism-based
[3] = target: Vitamin K-dependent protein C (Homo sapiens, UniProt P04070); test: Inhibitory activity against activated protein C (aPC)
Vitamin K-dependent protein C, sequence (P04070 43-197 limits assumed): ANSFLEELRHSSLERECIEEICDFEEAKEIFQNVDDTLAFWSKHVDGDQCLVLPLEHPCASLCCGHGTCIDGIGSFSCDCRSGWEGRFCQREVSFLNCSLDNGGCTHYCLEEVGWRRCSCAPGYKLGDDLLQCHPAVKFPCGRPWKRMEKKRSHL
Vitamin K-dependent protein C, sequence (P04070 212-461 limits assumed): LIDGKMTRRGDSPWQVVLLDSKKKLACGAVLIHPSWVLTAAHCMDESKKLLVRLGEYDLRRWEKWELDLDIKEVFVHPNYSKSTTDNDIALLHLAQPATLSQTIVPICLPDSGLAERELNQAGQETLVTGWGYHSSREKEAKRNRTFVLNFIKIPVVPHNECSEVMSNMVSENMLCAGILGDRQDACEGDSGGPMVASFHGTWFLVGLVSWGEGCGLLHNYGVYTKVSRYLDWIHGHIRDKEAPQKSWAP

Coagulation factor X [4] = target: T1, Coagulation factor X; test: (§1) In vitro binding affinity towards factor Xa
[5] = Inhibitory activity against Kallikrein
Plasminogen = Plasminogen (Homo sapiens, UniProt P00747); test: Inhibitory activity against Plasmin
Plasminogen, sequence (P00747 97-580 limits assumed): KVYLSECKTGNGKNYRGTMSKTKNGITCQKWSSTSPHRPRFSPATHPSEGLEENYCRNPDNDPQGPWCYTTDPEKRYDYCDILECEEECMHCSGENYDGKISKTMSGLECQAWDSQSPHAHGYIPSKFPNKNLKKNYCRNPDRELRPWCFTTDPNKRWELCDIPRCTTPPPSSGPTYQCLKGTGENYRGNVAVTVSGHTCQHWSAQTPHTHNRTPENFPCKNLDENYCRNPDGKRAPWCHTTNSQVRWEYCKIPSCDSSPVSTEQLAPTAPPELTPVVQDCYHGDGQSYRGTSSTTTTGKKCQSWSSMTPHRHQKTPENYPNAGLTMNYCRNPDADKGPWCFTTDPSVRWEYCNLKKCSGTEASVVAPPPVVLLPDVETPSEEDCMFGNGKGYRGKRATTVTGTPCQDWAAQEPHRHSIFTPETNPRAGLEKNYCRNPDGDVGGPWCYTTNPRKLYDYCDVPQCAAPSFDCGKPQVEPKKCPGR
Plasminogen, sequence (P00747 581-810 limits assumed): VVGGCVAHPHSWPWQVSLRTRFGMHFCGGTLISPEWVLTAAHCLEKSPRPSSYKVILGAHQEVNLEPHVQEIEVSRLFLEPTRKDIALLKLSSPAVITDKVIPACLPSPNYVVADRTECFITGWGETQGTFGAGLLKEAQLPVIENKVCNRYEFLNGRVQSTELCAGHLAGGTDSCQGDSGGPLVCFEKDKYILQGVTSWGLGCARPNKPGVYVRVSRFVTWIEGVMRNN

[6] = In vitro anticoagulant activity was measured by activated partial thromboplastin time (APTT) assay; type: functional
[7] = In vitro anticoagulant activity was measured by prothrombin time (PT) assay; type: functional
[8] = In vitro anticoagulant activity was measured by plasma based on thrombin generation (TG) assay; type: functional
Oryctolagus cuniculus [9] = test: In vivo plasma concentration required to inhibit thrombosis formation in rabbit; type: functional, organism-based
Oryctolagus cuniculus [10] = test: In vivo inhibition thrombosis formation in rabbit; type: functional
[11] = target: Tissue-type plasminogen activator (Homo sapiens, UniProt P00750); test: Inhibitory activity against tissue plasminogen activator (tissue plasminogen activator)
Tissue-type plasminogen activator, sequence (P00750 whole entry): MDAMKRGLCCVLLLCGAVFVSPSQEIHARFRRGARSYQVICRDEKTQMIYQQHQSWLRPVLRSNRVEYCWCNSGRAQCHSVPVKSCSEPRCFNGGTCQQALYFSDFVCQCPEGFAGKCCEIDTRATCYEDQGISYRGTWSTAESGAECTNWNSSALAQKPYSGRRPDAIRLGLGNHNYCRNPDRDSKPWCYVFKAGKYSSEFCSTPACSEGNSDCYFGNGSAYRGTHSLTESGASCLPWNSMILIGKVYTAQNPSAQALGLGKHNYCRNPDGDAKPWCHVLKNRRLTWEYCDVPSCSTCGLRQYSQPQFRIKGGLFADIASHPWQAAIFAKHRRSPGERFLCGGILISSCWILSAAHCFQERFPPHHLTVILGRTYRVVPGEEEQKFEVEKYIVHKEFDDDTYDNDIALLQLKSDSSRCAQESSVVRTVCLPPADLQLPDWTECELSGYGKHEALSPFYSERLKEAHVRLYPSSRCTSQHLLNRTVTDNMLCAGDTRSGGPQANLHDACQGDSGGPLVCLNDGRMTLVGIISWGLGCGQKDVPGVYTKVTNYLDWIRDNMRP

Serine protease 1 = Serine protease 1 (Homo sapiens, UniProt P07477); test: Inhibitory activity against Trypsin
Serine protease 1, sequence (P07477 whole entry): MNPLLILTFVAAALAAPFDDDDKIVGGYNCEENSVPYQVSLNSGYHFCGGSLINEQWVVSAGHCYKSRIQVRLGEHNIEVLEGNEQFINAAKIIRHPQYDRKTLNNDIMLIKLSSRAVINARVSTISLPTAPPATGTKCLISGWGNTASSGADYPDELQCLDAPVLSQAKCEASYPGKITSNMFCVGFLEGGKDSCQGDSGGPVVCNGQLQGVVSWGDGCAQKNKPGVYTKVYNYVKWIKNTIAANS

Coagulation factor X [12] = target: T1, Coagulation factor X; test: as §1; remark: listed apart in the source
[13] = Half life period after intravenous administration in rat; type: ADME, organism-based; conditions: in vivo

T1 sequence (P00742 41-179 limits assumed): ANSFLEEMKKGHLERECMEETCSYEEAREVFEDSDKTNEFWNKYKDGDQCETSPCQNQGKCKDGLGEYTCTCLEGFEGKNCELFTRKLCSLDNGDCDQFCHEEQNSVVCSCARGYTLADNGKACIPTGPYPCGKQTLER
T1 sequence (P00742 235-488 limits assumed): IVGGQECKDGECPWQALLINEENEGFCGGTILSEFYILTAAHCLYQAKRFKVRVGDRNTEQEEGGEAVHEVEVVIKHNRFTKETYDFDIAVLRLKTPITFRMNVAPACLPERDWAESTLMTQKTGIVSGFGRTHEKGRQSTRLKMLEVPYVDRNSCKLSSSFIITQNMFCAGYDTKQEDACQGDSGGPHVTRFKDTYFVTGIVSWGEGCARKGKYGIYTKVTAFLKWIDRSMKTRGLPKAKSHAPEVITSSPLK

Structure (SMILES): N=C(N)NCCC[C@@H](NC(=O)CN1CCN(C(=O)Cc2ccccc2)CC1=O)C(=O)c1nccs1
- IC50 (Coagulation factor X [1]): 21 nM
- IC50 (Prothrombin): 2000 nM

Structure (SMILES): COc1ccc(S(=O)(=O)N2CCN(CC(=O)NC(CCCNC(=N)N)C(=O)c3nccs3)C(=O)C2)cc1 (stereo not drawn)
- IC50 (Coagulation factor X [1]): 0.89 nM
- IC50 (Prothrombin): 792 nM

Structure (SMILES): CC(=O)Nc1nc(C)c(S(=O)(=O)N2CCN(CC(=O)NC(CCCN=C(N)N)C(=O)c3nccs3)C(=O)C2)s1 (stereo not drawn)
- IC50 (Coagulation factor X [1]): 58 nM
- IC50 (Prothrombin): 4000 nM

Structure (SMILES): N=C(N)NCCC[C@@H](NC(=O)CNC(=O)[C@H](Cc1c[nH]c2ccccc12)NS(=O)(=O)Cc1ccccc1)C(=O)c1nccs1
- IC50 (Coagulation factor X [1]): 2 nM
- IC50 (Prothrombin): 870 nM

Structure (SMILES): N=C(N)NCCCC(NC(=O)CN1CCN(S(=O)(=O)c2cccc3ccccc23)CC1=O)C(=O)c1nccs1 (stereo not drawn)
- IC50 (Coagulation factor X [1]): 2 nM
- IC50 (Prothrombin): 118 nM

Structure (SMILES): N#Cc1c(Cl)cccc1Oc1ccc(S(=O)(=O)N2CCN(CC(=O)NC(CCCNC(=N)N)C(=O)c3nccs3)C(=O)C2)cc1 (stereo not drawn)
- IC50 (Coagulation factor X [1]): 38 nM
- IC50 (Prothrombin): 4000 nM

Structure (SMILES): N=C(N)NCCCC(NC(=O)CN1CCN(S(=O)(=O)CCc2cccc3ccccc23)CC1=O)C(=O)c1nccs1 (stereo not drawn)
- IC50 (Coagulation factor X [1]): 3 nM
- IC50 (Prothrombin): 375 nM

Structure (SMILES): N=C(N)NCCCC(NC(=O)CN1CCN(S(=O)(=O)c2ccc(NO)cc2)CC1=O)C(=O)c1nccs1 (stereo not drawn)
- IC50 (Coagulation factor X [1]): 10 nM
- IC50 (Prothrombin): 7000 nM

Structure (SMILES): N=C(N)NCCC[C@@H](NC(=O)CN1CCN(S(=O)(=O)c2ccc(Cl)cc2)CC1=O)C(=O)c1nccs1
- half-life [2]: 22 min
- IC50 [3]: > 180000 nM
- k off (Coagulation factor X [4]): 0.19 s⁻¹
- k on (Coagulation factor X [4]): 3.4e+06 M⁻¹ s⁻¹
- IC50 [5]: 406 nM
- IC50 (Plasminogen): 10700 nM
- 2x APTT [6]: 4.2 µM
- 2x PT [7]: 11.2 µM
- 2x TG [8]: 0.52 µM
- Plasma concentration (Oryctolagus cuniculus [9]): 0.5 µM
- Inhibition (Oryctolagus cuniculus [10]): 90%
- IC50 [11]: 1880 nM
- IC50 (Serine protease 1): 10.8 nM
- IC50 (Prothrombin): 1000 nM

Structure (SMILES): N=C(N)NCCC[C@@H](NC(=O)CN1CCN(S(=O)(=O)Cc2ccccc2)CC1)C(=O)c1nccs1
- IC50 (Coagulation factor X [1]): 24000 nM
- IC50 (Prothrombin): > 500000 nM

Structure (SMILES): N=C(N)NCCCC(NC(=O)CN1CCN(S(=O)(=O)c2cccc3cccnc23)CC1=O)C(=O)c1nccs1 (stereo not drawn)
- half-life [2]: 29 min
- IC50 [3]: > 180000 nM
- k off (Coagulation factor X [4]): 0.107 s⁻¹
- k on (Coagulation factor X [4]): 2.9e+06 M⁻¹ s⁻¹
- Ki (Coagulation factor X [12]): 4.4 nM
- IC50 (Coagulation factor X [1]): 2 nM
- IC50 [5]: 240 nM
- IC50 (Plasminogen): 10 nM
- 2x APTT [6]: 2 µM
- 2x PT [7]: 10.4 µM
- 2x TG [8]: 2.5 µM
- Plasma concentration (Oryctolagus cuniculus [9]): 0.4 µM
- Inhibition (Oryctolagus cuniculus [10]): 0%
- IC50 [11]: 150 nM
- IC50 (Serine protease 1): 2 nM
- IC50 (Prothrombin): 569 nM

Structure (SMILES): N=C(N)NCCC[C@@H](NS(=O)(=O)Cc1ccccc1)C(=O)NCC(=O)N[C@H](CCCNC(=N)N)C(=O)c1nccs1
- half-life [2]: 24 min
- IC50 [3]: 6000 nM
- k on (Coagulation factor X [4]): 6.5e+06 M⁻¹ s⁻¹
- IC50 [5]: 27 nM
- IC50 (Plasminogen): 309 nM
- 2x APTT [6]: 0.5 µM
- 2x PT [7]: 6.8 µM
- 2x TG [8]: 0.18 µM
- Plasma concentration (Oryctolagus cuniculus [9]): 0.07 µM
- Inhibition (Oryctolagus cuniculus [10]): 100%
- IC50 [11]: 329 nM
- IC50 (Serine protease 1): 0.8 nM
- IC50 (Prothrombin): 10000 nM

Structure (SMILES): Cc1c(S(=O)(=O)N2CCN(CC(=O)NC(CCCNC(=N)N)C(=O)c3nccs3)C(=O)C2)sc2ccc(Cl)cc12 (stereo not drawn)
- half-life [13]: 5 min
- IC50 [3]: 169000 nM
- Ki (Coagulation factor X [12]): 0.17 nM
- IC50 (Coagulation factor X [1]): 0.51 nM
- IC50 (Plasminogen): 1300 nM
- IC50 [11]: 9960 nM
- IC50 (Serine protease 1): 20 nM
- IC50 (Prothrombin): 751 nM

Structure (SMILES): N#Cc1ccc(S(=O)(=O)N2CCN(CC(=O)NC(CCCNC(=N)N)C(=O)c3nccs3)C(=O)C2)cc1 (stereo not drawn)
- IC50 (Coagulation factor X [1]): 32 nM
- IC50 (Prothrombin): 3000 nM

Structure (SMILES): N=C(N)NCCCC(NC(=O)CN1CCN(S(=O)(=O)c2cc(Cl)c(Cl)cc2Cl)CC1=O)C(=O)c1nccs1 (stereo not drawn)
- IC50 (Coagulation factor X [1]): 1 nM
- IC50 (Prothrombin): 573 nM

Continued by falling IC50 (Prothrombin), values first:

- IC50 (Coagulation factor X [1]): 510 nM
- IC50 (Prothrombin): 17000 nM
Structure (SMILES): N=C(N)NCCCC(NC(=O)CN1CCN(S(=O)(=O)c2ccc(C(=O)O)cc2)CC1=O)C(=O)c1nccs1 (stereo not drawn)

- IC50 (Coagulation factor X [1]): 17 nM
- IC50 (Prothrombin): 11000 nM
Structure (SMILES): N=C(N)NCCC[C@@H](NC(=O)CN1CCN(C(=O)Cc2ccc(Cl)cc2)CC1=O)C(=O)c1nccs1

- IC50 (Coagulation factor X [1]): 13 nM
- IC50 (Prothrombin): 7000 nM
Structure (SMILES): N=C(N)NCCCC(NC(=O)CN1CCN(S(=O)(=O)/C=C/c2ccccc2)CC1=O)C(=O)c1nccs1 (stereo not drawn)

- IC50 (Coagulation factor X [1]): 85 nM
- IC50 (Prothrombin): 4000 nM
Structure (SMILES): CS(=O)(=O)c1ccc(S(=O)(=O)N2CCN(CC(=O)NC(CCCN=C(N)N)C(=O)c3nccs3)C(=O)C2)cc1 (stereo not drawn)

- IC50 (Coagulation factor X [1]): 1 nM
- IC50 (Prothrombin): 1000 nM
Structure (SMILES): N=C(N)NCCCC(NC(=O)CN1CCN(S(=O)(=O)c2ccc(Cl)c(Cl)c2)CC1=O)C(=O)c1nccs1 (stereo not drawn)

- IC50 (Coagulation factor X [1]): 8 nM
- IC50 (Prothrombin): 417 nM
Structure (SMILES): N=C(N)NCCC[C@@H](NC(=O)CN1CCN(S(=O)(=O)c2ccccc2)CC1=O)C(=O)c1nccs1

- IC50 (Coagulation factor X [1]): 29 nM
- IC50 (Prothrombin): 138 nM
Structure (SMILES): N=C(N)NCCC[C@@H](NC(=O)CN1CCC[C@H](NS(=O)(=O)Cc2ccccc2)C1=O)C(=O)c1nccs1

- IC50 (Prothrombin): 38 nM
Structure (SMILES): N=C(N)NCCC[C@@H](NC(=O)CN1CCCC[C@H](NS(=O)(=O)Cc2ccccc2)C1=O)C(=O)c1nccs1
